Data on five molecules can be found in patent US20210008149A1, “WNT5A PEPTIDES IN REDUCTION OF CANCER STEM CELLS” (WNTRESEARCH AB, priority 2017, published 2021).

Series [1] deals with human HT29 colon cancer cells. In words: CellTiter-Blue fluorescence cell viability assay. The settings on record: for IC50: read-out: IC50 value, cell viability, from dose-response curves.
Protocol: (§10) Colon cancer HT29 cells were treated with either FOLFOX alone (green triangles), 5-FU alone (orange triangles), oxaliplatin alone (black squares), Foxy-5 alone (red squares) or FOLFOX+Foxy-5 (blue circles). The cytotoxic effects of these different treatments were evaluated by CellTiter-Blue™ fluorescence cell viability assay. […] The data are normalized and shown as means±SEM.
For another series, the system named is HT29 colon cancer cells. Nature of the series: HT29 colon cancer xenograft in nude mice, tumours analysed by IHC and mRNA. Type of series: in vivo. Particulars: HT29-derived tumours. The source says: (§1) Representative photos from saline- and Foxy-5-treated animals are presented. From each such slide, 4 boxes were put on top of the stained tissue and for each of them the ALDH staining was scored as a percentage of stained cells multiplied by the staining intensity. The following score was used for percentage stained cells; 0 for positive stained cells <5%, 1 for positive cells 5-25%, 2 for positive cells 26-50%, 3 for positive cells 51-75%, 4 for positive cells >75%.
(§2) For staining intensities, the stained areas were scored as; 1 for weak staining, 2 for medium staining and 3 for strong staining. For each box a final score was obtained by multiplying the score for percentage of positively stained cells with the score for staining intensity. Finally, a mean value was obtained from the 4 boxes for each tumour. The same scoring protocol was then used for all IHC analyses presented in the present study.
(§3) Representative images from vehicle (saline) and Foxy-5-treated animals are presented. From each such slide, 6 boxes were randomly put on top of the stained tissue and for each of them the ALDH staining was scored as a percentage of stained cells multiplied by the staining intensity. The following score was used for percentage stained cells; 0 for positive stained cells <5%, 1 for positive cells 5-25%, 2 for positive cells 26-50%, 3 for positive cells 51-75%, 4 for positive cells >75%.
(§4) For staining intensities, the stained areas were scored as; 1 for weak staining, 2 for medium staining and 3 for strong staining. For each box a final score was obtained by multiplying the score for percentage of positively stained cells with the score for staining intensity. Finally, a mean value was obtained from the 6 boxes for each tumour sample. The same scoring protocol was then used for all IHC analyses presented in the present study.
(§5) Tumours from two different human colon cancer cell types HT29 and Caco-2 cells were examined by immunohistochemistry (IHC) and mRNA (see FIG. 1).
(§6) On day 0: Subcutaneous injections of HT29 or Caco-2 colon cancer cells in nude mice were done.
(§7) On day 7 after tumours have been established in the mice, intraperitoneal (I.P) injections of vehicle (saline) alone (gr 1) or Foxy-5 (2 μg/g; gr 2) were done.
(§8) On days 9-23 tumour growth and animal weight was monitored—then +8 I.P. injections every 2nd day of either vehicle alone (gr 1) or Foxy-5 (2 μg/g; gr 2).
(§9) On day 24 the two types of tumours (Caco-2 and HT29 derived) (divided in two parts of which one was fixed and the other frozen at −80° C.) were analyzed by IHC for their protein expression of COX-2, 15PGDH, β-catenin, Ascl2, ALDH and Dckl1 and for their mRNA content of ALDH and Dckl1 (ALDH is a general stem cell marker and Dck1 is a specific marker for colon CSCs).

Series [2] relates to Caco-2 colon cancer cells. In words: Caco-2 colon cancer xenograft in nude mice, tumours analysed by IHC and mRNA. Particulars: Caco-2-derived tumours. Type of series: in vivo.
Source text: as §1, §2, §3, §4, §5, §6, §7, §8, §9

The test system of series [3] is colon cancer xenograph tissue. In words: Colon cancer xenograft tissue (cell line not stated), IHC of COX-2 and 15-PGDH. Type of series: in vivo, nude mice. Particulars: Foxy-5 2 μg/g I.P., vs vehicle.
Source text: The IHC stainings were scored exactly as described in detail for the IHC staining in FIG. 1.
Representative images from vehicle- and Foxy-5-treated animals are presented. From each such slide 6 boxes were put on top of the stained tissue and for each of them the Cox-2 staining was scored as a percentage of stained cells multiplied by the staining intensity as described in detail for FIG. 2.
Representative images from vehicle- and Foxy-5-treated animals are presented. From each such slide 6 boxes were put on top of the stained tissue and for each of them the 15-PGDH staining was scored as a percentage of stained cells multiplied by the staining intensity as described in detail for FIG. 2.
On day 0: Subcutaneous injections of HT29 or Caco-2 colon cancer cells in nude mice were done. […]
as §8, §9

Series [4] concerns colon cancer cells. In words: In vitro treatment of colon cancer cells (Mehdawi et al., 2016). Type of series: cell-based. The settings on record: in vitro conditions, inventors' own observation.
Series [5] concerns human HT29 colon cancer cells.
Protocol: as §10
Series [6] relates to colon cancer cells. Particulars: in vitro; cited from earlier work.
Where [7] appears, read: Foxy-5 2 μg/g I.P. every 2nd day, day 7-23, IHC and mRNA, day 24, vs vehicle.
Setting [8] is: Foxy-5 2 μg/g I.P., vs vehicle-treated mice.

Read-outs that look alike come from different tables or passages of the source.

One may read the IC50 as the midpoint of a concentration-inhibition curve. Turning to `O=c1[nH]cc(F)c(=O)[nH]1` [5-FU, 5-fluorouracil], the half-maximal inhibitory concentration (IC50) in series [1] is 6.8 µM.

With `Nc1nc2c(c(=O)[nH]1)N(C=O)C(CNc1ccc(C(=O)N[C@@H](CCC(=O)O)C(=O)O)cc1)CN2` (stereo partly drawn) [folinic acid], the “cytotoxic effect on cell viability” value in series [1] (monotherapy) is recorded as “no cytotoxic effect”.

`O=C1[O][Pt]2([NH][C@@H]3CCCC[C@H]3[NH]2)[O]C1=O` [oxaliplatin]: the IC50 in series [1] worked out at 3.4 µM.

MDGCEL [Foxy-5]: in the series with HT29 colon cancer cells (IHC, Foxy-5 2 μg/g I.P.), the “active β-catenin nuclei expression” value is recorded as “Decreased” and the “β-catenin downstream target Ascl2 protein expression” value was “reductions”. Also, in the series on HT29 colon cancer cells (setting [7]), the “expression of the two stem cell biomarkers (ALDH and Dck1)” value is “significantly reduce”. The tumour volume result with HT29 colon cancer cells (setting [8]) is “reductions”. Moreover, in series [2] (IHC, Foxy-5 2 μg/g I.P.), the “active β-catenin nuclei expression” value is recorded as “Decreased” and the “β-catenin downstream target Ascl2 protein expression” value is recorded as “reductions”. In series [2] (setting [7]), the “expression of the two stem cell biomarkers (ALDH and Dck1)” value was “significantly reduce”. In series [2] (setting [8]), the tumour volume entry was “reductions”. In series [3], the “PGE2 degrading enzyme 15-PGDH expression” value is “increase” and the “expression of the PGE2 generating enzyme COX-2” value is “decrease”. The “number of CSCs” value in the series on colon cancer cells [4] was “not been able to detect any reduction”. Moreover, the “effect on the inhibitory effect of FOLFOX on cell viability” value in series [1] (combined with FOLFOX) is listed as “do not enhance or reduce”. In addition, the “IC50 value, cell viability” value in series [1] (from dose-response curves) is “no IC50 value could be determined”. Besides, the “cytotoxic effect on cell viability” value in series [5] is “no cytotoxic effect”. In the series on colon cancer cells [6], the “expression of the PGE2 and lipoxin degrading enzyme 15-PGDH” value is “up-regulate”; the “expression of the PGE2 producing enzyme COX-2” value is “decrease”; the β-catenin signalling entry is “reduction”.

B1: WNT5A protein: full length WNT5A protein according to SEQ ID NO: 1, a non-canonical Wnt ligand (protein, listed as Homo sapiens)
chain: MKKSIGILSPGVALGMAGSAMSSKFFLVALAIFFSFAQVVIEANSWWSLGMNNPVQMSEVYIIGAQPLCSQLAGLSQGQKKLCHLYQDHMQYIGEGAKTGIKECQYQFRHRRWNCSTVDNTSVFGRVMQIGSRETAFTYAVSAAGVVNAMSRACREGELSTCGCSRAARPKDLPRDWLWGGCGDNIDYGYRFAKEFVDARERERIHAKGSYESARILMNLHNNEAGRRTVYNLADVACKCHGVSGSCSLKTCWLQLADFRKVGDALKEKYDSAAAMRLNSRGKLVQVNSRFNSPTTQDLVYIDPSPDYCVRNESTGSLGTQGRLCNKTSEGMDGCELMCCGRGYDQFKTVQTERCHCKFHWCCYVKCKKCTEIVDQFVCK
For the molecule B1, the “number of CSCs” value with colon cancer cells [4] is “not been able to detect any reduction”. Also, in the series on colon cancer cells [6], the “expression of the PGE2 and lipoxin degrading enzyme 15-PGDH” value is recorded as “up-regulate”; the “expression of the PGE2 producing enzyme COX-2” value is “decrease”; the β-catenin signalling entry is “reduction”.
